Source: paper PMC2738925 (Transplantation, 2009)

Target: T1, mouse CXCR3 (Mus musculus, UniProt O88410)
T1 sequence (O88410 1-367): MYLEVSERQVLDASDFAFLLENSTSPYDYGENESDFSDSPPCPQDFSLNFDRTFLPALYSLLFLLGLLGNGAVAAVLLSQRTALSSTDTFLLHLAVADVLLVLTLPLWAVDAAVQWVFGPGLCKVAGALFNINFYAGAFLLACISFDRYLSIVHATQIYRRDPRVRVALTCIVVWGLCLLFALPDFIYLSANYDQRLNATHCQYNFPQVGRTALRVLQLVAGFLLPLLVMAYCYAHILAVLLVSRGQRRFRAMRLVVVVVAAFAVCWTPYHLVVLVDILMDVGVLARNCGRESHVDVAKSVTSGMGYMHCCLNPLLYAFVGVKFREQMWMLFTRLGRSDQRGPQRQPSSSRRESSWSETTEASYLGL
Test: […]-CXCL10 radioligand displacement on HEK […] cells transfected with mouse CXCR3
Format: cell-based

## AMG1237845
  IC50: 0.053 ± 0.007 µM
